Read-outs that look alike come from different tables or passages of the source.

Test [1] has as its target T1, T. cruzi CYP51 (Trypanosoma cruzi, UniProt Q7Z1V1).
T1 construct: had the first 21 residues upstream of K22 replaced with the fragment MAKKKKK; His6 (C); made in house
In words: Low throughput UV-vis binding assay. As to conditions: for Binding to CYP51 by UV-vis titration (in words): 0.5 µM CYP51. The protocol:
Hit validation in the low throughput UV-vis binding assay was performed according to a previously published but somewhat modified protocol. UV-vis absorption spectra were recorded on a Cary scanning spectrophotometer (Varian) in the 1-cm path length quartz cuvette at 23°C in 100 mM potassium phosphate buffer, pH 7.5, containing 10% glycerol, with CYP51 concentration of 0.5 µM. Compound solutions used for titration were prepared in DMSO at 100 µM and added in 2-µl aliquots to each 3 ml sample using a P2 pipetman (Gilson). Binding affinity of hits was estimated using the quadratic tight-binding equation [27]: […]
where Aobs is the absorption shift determined at any ligand concentration; Amax is the maximal absorption shift obtained at saturation; KD is dissociation constant for the inhibitor-enzyme complex; S is the ligand concentration; Et is the total enzyme concentration.

The subject of test [2] is T. cruzi-infected skeletal myoblasts (intracellular amastigotes). The test can be described thus: Hit cross-validation in T. cruzi-infected mammalian cells (image-based assay). It is filed as cell-based, Trypanosoma cruzi. The settings on record: for Intracellular amastigotes in DAPI images after 72 h treatment: Compound 1 at 0.123 µM and 10 µM, Compound 13 at 10 µM; for EC50: Trypanosoma cruzi, Myoblast.

For test [3], the system named is T. cruzi trypomastigote strain CAI/72 in C2C12 myoblasts. The test can be described thus: Trypanocidal assay. The class given is cell-based, Trypanosoma cruzi. The settings on record: 14 days treatment, then one week compound-free. On the procedure:
Compounds cross-validated with low EC50 against T. cruzi infected cells were further evaluated to determine the “cidal” concentration at which host cells are effectively cured, using the protocol adapted from Engel et al 1998 [30]. To allow long term treatment and avoid culture overgrowth, C2C12 myoblasts were seeded at low density in 96 well plates (10^3 cells/well) and cultured with DMEM H-21 medium supplemented with low FBS concentration (1%), 25 mM HEPES, 2 mM L-glutamine, 100 U/ml penicillin and 100 µg/ml streptomycin. The cells were infected with T. cruzi trypomastigote strain CAI/72 (5 parasites/cell) for 24 h and treated with 0, 0.04, 0.12, 0.37, 1.10, 3.30 or 10 µM test compounds in 100 µl of medium for 14 days. During the course of treatment, medium supplemented with test compounds was replaced every 72 h. After 14 days, drug pressure was withdrawn and incubation continued in the compound-free medium for another week, during which cultures were monitored for reappearance of T. cruzi trypomastigotes in the supernatant.

T1 sequence (Q7Z1V1 15-481, looked up, natural form): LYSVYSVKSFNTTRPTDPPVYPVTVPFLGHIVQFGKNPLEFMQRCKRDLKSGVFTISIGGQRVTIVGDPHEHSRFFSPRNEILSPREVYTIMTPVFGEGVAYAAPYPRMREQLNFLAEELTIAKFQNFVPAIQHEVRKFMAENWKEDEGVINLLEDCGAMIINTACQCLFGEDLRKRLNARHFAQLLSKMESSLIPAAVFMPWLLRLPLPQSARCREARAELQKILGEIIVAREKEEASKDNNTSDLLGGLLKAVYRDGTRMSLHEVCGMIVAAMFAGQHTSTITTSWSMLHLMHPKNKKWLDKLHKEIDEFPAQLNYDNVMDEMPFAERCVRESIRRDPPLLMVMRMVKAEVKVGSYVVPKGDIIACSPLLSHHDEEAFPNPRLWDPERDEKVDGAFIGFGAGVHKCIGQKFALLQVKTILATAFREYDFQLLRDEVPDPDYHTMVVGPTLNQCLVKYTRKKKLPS

As for `Brc1ccccc1OCCCCCCn1ccnc1` [Compound 1], the “Binding to CYP51 by UV-vis titration (in words)” value in test [1] is “at least low nanomolar binding affinity”. Also, in test [1] (UV-vis titration, 0.5 µM CYP51, quadratic tight-binding equation, lower limit of method ~5 nM, read-out: KD), the Kd was not above 5 nM. Besides, in test [2], the “Intracellular amastigotes in DAPI images after 72 h treatment” value was “elimination of intracellular amastigotes”. Besides, the EC50 turned out to be 70 nM in test [2] (72 h, T. cruzi-infected myoblasts, 72 h treatment, read-out: EC50 in image-based HTS cross-validation assay) and 17 nM in test [2] (in Mus musculus, T. cruzi amastigotes cultured in mouse myoblasts, averaged from two independent assays, read-out: EC50 in low throughput validation (repurchased hit)). In addition, the Trypanocidal concentration in test [3] was found to be 40 nM.

As to `O=C(c1ccc(Cl)cc1)C(Oc1ccc(Cl)cc1)n1cncn1` (stereo not drawn) [Compound 13, 2-(4-chlorophenoxy)-1-(4-chlorophenyl)-2-(1H-1,2,4-triazol-1-yl)ethanone], in test [1], the Kd was not above 5 nM; the “Binding to CYP51 by UV-vis titration (in words)” value is “binds and saturates CYP51 at equimolar 0.5 µM concentrations”. In test [2], the “Intracellular amastigotes in DAPI images after 72 h treatment” value was “elimination of intracellular amastigotes”. Further, the EC50 in test [2] (72 h, T. cruzi-infected myoblasts, 72 h treatment, repurchased compound, read-out: EC50 averaged from two independent cross-validation assays for individually repurchased hits) turned out to be 1300 nM. Besides, the EC50 in test [2] (72 h, T. cruzi-infected myoblasts, 72 h treatment, read-out: EC50 against T. cruzi parasites in HTS assay used to rank order the hits) was determined as 1310 nM. The same compound registered a Trypanocidal concentration in test [3] of 2500 nM.

The Kd is a measure of binding affinity in units of concentration. In general, EC50 refers to the midpoint of the concentration-response curve.

The values are drawn from paper PMC3409115, “Diverse Inhibitor Chemotypes Targeting Trypanosoma cruzi CYP51” (PLoS Neglected Tropical Diseases, 2012).
